Results taken from patent publication US12319710B2, “Catecholamine prodrugs for use in the treatment of Parkinson's diseases” (H. Lundbeck A/S, priority 2019, dated 2025).

How the values were obtained:
[1] = PK experiments in rats: plasma compound (I) after oral dosing of prodrug; format: in vivo, Wistar rats; conditions: Wistar rats, oral
Method: Plasma was placed on water-ice following collection. Final storage at approximately −70° C.
Mobile phase B: Acetonitrile. […] Flow rate 0.5 mL/min.
The rats had unrestricted access to the diet.
Mobile phase B: Acetonitrile+0.2% formic acid. […] Flow rate 0.3 mL/min.
Dosing and blood sampling: Han Wistar rats were supplied by Envigo, UK. […] The rats received a standard laboratory diet Teklad 2014C. The rats had unrestricted access to the diet. […] Rats were given […] (Ic), 487 ag/kg compound (7), 487 ag/kg Compound (4), 674 ag/kg compound (9), 359 ag/kg A6 and 551 ag/kg A2.

human 5-HT2B receptor = target: T1, human 5-HT2B receptor (Homo sapiens, UniProt P41595); assay: 5-HT2B agonist activity assay (IP1 production, HTRF, transfected CHO cells); format: cell-based
T1 construct: host or cells: CHO cells (membrane homogenates)
T1 sequence (P41595 whole entry): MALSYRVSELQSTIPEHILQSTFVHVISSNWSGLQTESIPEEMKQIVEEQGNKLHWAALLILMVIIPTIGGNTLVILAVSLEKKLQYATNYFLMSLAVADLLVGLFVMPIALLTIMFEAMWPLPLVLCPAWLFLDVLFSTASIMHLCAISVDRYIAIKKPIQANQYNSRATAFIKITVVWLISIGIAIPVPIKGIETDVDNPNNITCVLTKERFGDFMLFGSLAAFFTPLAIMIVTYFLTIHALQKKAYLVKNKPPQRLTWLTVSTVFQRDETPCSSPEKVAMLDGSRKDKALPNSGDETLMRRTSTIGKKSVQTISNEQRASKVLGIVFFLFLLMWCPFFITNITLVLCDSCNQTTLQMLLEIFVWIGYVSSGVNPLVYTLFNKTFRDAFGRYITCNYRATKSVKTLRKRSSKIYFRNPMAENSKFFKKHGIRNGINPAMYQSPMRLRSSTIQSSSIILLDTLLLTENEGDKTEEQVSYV
Method: Evaluation of the agonist activity of compounds (I), (Ia) and (Ib) at the human 5-HT2B receptor was performed by Eurofins/Cerep (France) measuring the compound effects on inositol monophosphate (IP1) production using the HTRF detection method. Briefly, the human 5-HT2B receptor was expressed in transfected CHO cells. The cells were suspended in a buffer containing 10 mM Hepes/NaOH (pH 7.4), 4.2 mM KCl, 146 mM NaCl, 1 mM CaCl2, 0.5 mM MgCl2, 5.5 mM glucose and 50 mM LiCl, then distributed in microplates at a density of 4100 cells/well and incubated for 30 minutes at 37° C. in the presence of buffer (basal control), test compound or reference agonist. For stimulated control measurement, separate assay wells contained 1 μM 5-HT. Following incubation, the cells were lysed and the fluorescence acceptor (fluorophen D2-labeled IP1) and fluorescence donor (anti-IP1 antibody labeled with europium cryptate) were added. After 60 minutes at room temperature, the fluorescence transfer was measured at lambda(Ex) 337 nm and lambda(Em) 620 and 665 nm using a microplate reader (Rubystar, BMG). The IP1 concentration was determined by dividing the signal measured at 665 nm by that measured at 620 nm (ratio). The results were expressed as a percent of the control response to 1 μM 5-HT. […]

[2] = man, oral dosing; cited from earlier work

CCCN1CCC[C@@H]2CC3=C(CCCC3=O)C[C@H]21 [(Ia), reference compound]
plasma concentrations of compound (I) after oral dosing (in words) [1]: early and high peak plasma concentrations of compound (I)
5-HT2B % @ 30 uM (human 5-HT2B receptor; 30 uM, percent of control response to 1 μM 5-HT): 58%

CCCN1CCC[C@@H]2Cc3c(ccc4c3OCO4)C[C@H]21 [(Ib), (6aR,10aR)-7-propyl-6,6a,7,8,9,10,10a,11-octahydro-[1,3]dioxolo[4′,5′:5,6]benzo[1,2-g]quinoline, reference compound]
plasma concentrations of compound (I) after oral dosing (in words) [1]: early and high peak plasma concentrations of compound (I)
5-HT2B receptor agonism (in words) (human 5-HT2B receptor): agonist of the 5-HT2B receptor

CCCc1cc2c(s1)CN[C@@H]1CCc3cc(OC(C)=O)c(OC(C)=O)cc3[C@@H]21 [Adrogolide]
oral bioavailability [2]: ~4%
